# Measurements as given in patent US12226412B2, “Heteroaryl-ketone fused azadecalin glucocorticoid receptor modulators” (Corcept Therapeutics, Inc., priority 2012, dated 2025).
# Read-outs that look alike come from different tables or passages of the source.
# How the values were obtained:
# human recombinant GR = target: T1, human recombinant GR (Homo sapiens, UniProt P04150); test: Human glucocorticoid receptor (GR) fluorescence polarisation (FP) binding assay
# T1 construct: purchased PanVera P2812
# T1 sequence (P04150 1-777): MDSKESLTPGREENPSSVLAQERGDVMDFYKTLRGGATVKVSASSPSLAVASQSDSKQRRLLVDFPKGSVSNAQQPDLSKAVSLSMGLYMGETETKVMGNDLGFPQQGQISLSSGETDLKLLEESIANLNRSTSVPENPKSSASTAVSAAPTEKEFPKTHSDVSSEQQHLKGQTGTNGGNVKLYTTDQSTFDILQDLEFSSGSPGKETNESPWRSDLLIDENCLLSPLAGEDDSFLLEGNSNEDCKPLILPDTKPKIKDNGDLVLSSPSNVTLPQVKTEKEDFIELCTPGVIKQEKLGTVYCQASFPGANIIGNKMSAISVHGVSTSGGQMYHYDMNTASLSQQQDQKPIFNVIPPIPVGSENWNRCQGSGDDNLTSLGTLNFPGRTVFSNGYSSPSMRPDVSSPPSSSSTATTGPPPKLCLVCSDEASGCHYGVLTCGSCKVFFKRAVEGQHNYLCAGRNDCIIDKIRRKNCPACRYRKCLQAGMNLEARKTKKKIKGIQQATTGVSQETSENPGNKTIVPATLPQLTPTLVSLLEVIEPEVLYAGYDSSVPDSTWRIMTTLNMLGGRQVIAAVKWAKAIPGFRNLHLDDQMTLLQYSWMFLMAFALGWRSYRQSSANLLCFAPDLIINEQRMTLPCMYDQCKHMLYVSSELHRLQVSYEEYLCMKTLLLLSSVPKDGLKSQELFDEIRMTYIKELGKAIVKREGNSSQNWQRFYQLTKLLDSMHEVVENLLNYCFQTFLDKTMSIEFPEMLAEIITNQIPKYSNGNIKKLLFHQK
# In short: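 Competition fluorescence polarisation: 0.5 nM GS Red labelled glucocorticoid and 1 nM recombinant human GR with 8-point half-log compound series, 1% DMSO, 4 h room temperature, potassium phosphate pH 7.4 buffer with molybdate, EDTA, DTT. Affinity derived from the drop in polarisation, normalised to blank wells.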
# [1] = tested on: induction of TAT by dexamethasone in HepG2 cells; test: HepG2 tyrosine aminotransferase (TAT) assay; type: cell-based, human
# [2] = human recombinant GR, fluorescence polarisation binding assay, read-out: GR binding
# [3] = HepG2 cells, challenge of 100 nM dexamethasone, Ki from IC50 by Cheng and Prusoff equation
SMILES,Ki (human recombinant GR; [2]),"Ki [1, 3]",Ki (human recombinant GR),Ki [1]
"O=C(c1ccccn1)[C@]12Cc3cnn(-c4ccc(F)cc4)c3C=C1CCN(S(=O)(=O)c1ccc(C(F)(F)F)cc1)C2 [Example 1, (R)-(1-(4-fluorophenyl)-6-((4-(trifluoromethyl)phenyl)sulfonyl)-4,4a,5,6,7,8-hexahydro-1H-pyrazolo[3,4-g]isoquinolin-4a-yl)(pyridin-2-yl)methanone]",–,–,< 0.5 nM,< 20 nM
"O=C(c1nccs1)[C@]12Cc3cnn(-c4ccc(F)cc4)c3C=C1CCN(S(=O)(=O)c1ccc(N3CCCC3)cc1)C2 [Example 6, (R)-(1-(4-fluorophenyl)-6-((4-(pyrrolidin-1-yl)phenyl)sulfonyl)-4,4a,5,6,7,8-hexahydro-1H-pyrazolo[3,4-g]isoquinolin-4a-yl)(thiazol-2-yl)methanone]",0.5 to 1 nM,20 to 100 nM,–,–
"O=C(c1ccccn1)[C@]12Cc3cnn(-c4ccc(F)cc4)c3C=C1CCN(S(=O)(=O)c1ccc(F)c(C(F)(F)F)c1)C2 [Example 2P, (R)-(6-((4-fluoro-3-(trifluoromethyl)phenyl)sulfonyl)-1-(4-fluorophenyl)-4,4a,5,6,7,8-hexahydro-1H-pyrazolo[3,4-g]isoquinolin-4a-yl)(pyridin-2-yl)methanone]",–,–,0.5 to 1 nM,< 20 nM
"O=C(c1ccccn1)[C@]12Cc3cnn(-c4ccc(F)cc4)c3C=C1CCN(S(=O)(=O)c1ccc(Cl)c(F)c1)C2 [Example 2H, (R)-(6-((4-chloro-3-fluorophenyl)sulfonyl)-1-(4-fluorophenyl)-4,4a,5,6,7,8-hexahydro-1H-pyrazolo[3,4-g]isoquinolin-4a-yl)(pyridin-2-yl)methanone]",< 0.5 nM,< 20 nM,–,–
"COc1cccc(S(=O)(=O)N2CCC3=Cc4c(cnn4-c4ccc(F)cc4)C[C@]3(C(=O)c3ccccn3)C2)c1 [Example 2G, (R)-(1-(4-fluorophenyl)-6-((3-methoxyphenyl)sulfonyl)-4,4a,5,6,7,8-hexahydro-1H-pyrazolo[3,4-g]isoquinolin-4a-yl)(pyridin-2-yl)methanone]",–,–,< 0.5 nM,< 20 nM
"O=C(c1cocn1)[C@]12Cc3cnn(-c4ccc(F)cc4)c3C=C1CCN(S(=O)(=O)c1ccc(C(F)(F)F)cc1)C2 [Example 1E, (R)-(1-(4-fluorophenyl)-6-((4-(trifluoromethyl)phenyl)sulfonyl)-4,4a,5,6,7,8-hexahydro-1H-pyrazolo[3,4-g]isoquinolin-4a-yl)(oxazol-4-yl)methanone]",–,20 to 100 nM,< 0.5 nM,–
"COc1ccnc(C(=O)[C@]23Cc4cnn(-c5ccc(F)cc5)c4C=C2CCN(S(=O)(=O)c2cc(F)cc(F)c2)C3)c1 [Example 1K, (R)-(6-((3,5-difluorophenyl)sulfonyl)-1-(4-fluorophenyl)-4,4a,5,6,7,8-hexahydro-1H-pyrazolo[3,4-g]isoquinolin-4a-yl)(4-methoxypyridin-2-yl)methanone]",< 0.5 nM,< 20 nM,–,–
"O=C(c1nccs1)[C@]12Cc3cnn(-c4ccc(F)cc4)c3C=C1CCN(S(=O)(=O)Cc1cccc(F)c1)C2 [Example 2A, (R)-(6-((3-fluorobenzyl)sulfonyl)-1-(4-fluorophenyl)-4,4a,5,6,7,8-hexahydro-1H-pyrazolo[3,4-g]isoquinolin-4a-yl)(thiazol-2-yl) methanone]",< 0.5 nM,≥ 100 nM,–,–
"Cc1cccc(S(=O)(=O)N2CCC3=Cc4c(cnn4-c4ccc(F)cc4)C[C@]3(C(=O)c3ccccn3)C2)c1 [Example 2E, (R)-(1-(4-fluorophenyl)-6-(m-tolylsulfonyl)-4,4a,5,6,7,8-hexahydro-1H-pyrazolo[3,4-g]isoquinolin-4a-yl)(pyridin-2-yl)methanone]",–,–,< 0.5 nM,< 20 nM
"O=C(c1ccccn1)[C@]12Cc3cnn(-c4ccc(F)cc4)c3C=C1CCN(S(=O)(=O)C1CCOCC1)C2 [Example 2S, (R)-(1-(4-fluorophenyl)-6-((tetrahydro-2H-pyran-4-yl)sulfonyl)-4,4a,5,6,7,8-hexahydro-1H-pyrazolo[3,4-g]isoquinolin-4a-yl)(pyridin-2-yl)methanone]",> 1 nM,≥ 100 nM,–,–

# Second part, led by results:
Ki (human recombinant GR; [2]),SMILES,"Ki [1, 3]",Ki (human recombinant GR),Ki [1]
< 0.5 nM,"Cc1ccnc(C(=O)[C@]23Cc4cnn(-c5ccc(F)cc5)c4C=C2CCN(S(=O)(=O)c2ccc(F)c(C)c2)C3)c1 [Example 11AL, (R)-(6-((4-fluoro-3-methylphenyl)sulfonyl)-1-(4-fluorophenyl)-4,4a,5,6,7,8-hexahydro-1H-pyrazolo[3,4-g]isoquinolin-4a-yl)(4-methylpyridin-2-yl)methanone]",< 20 nM,–,–
< 0.5 nM,"CC(C)n1cc(S(=O)(=O)N2CCC3=Cc4c(cnn4-c4ccc(F)cc4)C[C@]3(C(=O)c3ccccn3)C2)nn1 [Example 11CV, (R)-(1-(4-fluorophenyl)-6-((1-isopropyl-1H-1,2,3-triazol-4-yl)sulfonyl)-4,4a,5,6,7,8-hexahydro-1H-pyrazolo[3,4-g]isoquinolin-4a-yl)(pyridin-2-yl)methanone]",20 to 100 nM,–,–
< 0.5 nM,"O=C(c1ccccn1)[C@]12Cc3cnn(-c4ccc(F)cc4)c3C=C1CCN(S(=O)(=O)c1cncc(N3CCCC3)c1)C2 [Example 10B, (R)-(1-(4-fluorophenyl)-6-((5-(pyrrolidin-1-yl)pyridin-3-yl)sulfonyl)-4,4a,5,6,7,8-hexahydro-1H-pyrazolo[3,4-g]isoquinolin-4a-yl)(pyridin-2-yl)methanone]",< 20 nM,–,–
< 0.5 nM,"CN1CCOc2cc(S(=O)(=O)N3CCC4=Cc5c(cnn5-c5ccc(F)cc5)C[C@]4(C(=O)c4ccccn4)C3)cnc21 [Example 11AB, (R)-(1-(4-fluorophenyl)-6-((4-methyl-3,4-dihydro-2H-pyrido [3,2-b][1,4]oxazin-7-yl)sulfonyl)-4,4a,5,6,7,8-hexahydro-1H-pyrazolo[3,4-g]isoquinolin-4a-yl)(pyridin-2-yl)methanone]",20 to 100 nM,–,–
< 0.5 nM,"Cn1ccc(S(=O)(=O)N2CCC3=Cc4c(cnn4-c4ccc(F)cc4)C[C@]3(C(=O)c3cc(C(F)(F)F)ccn3)C2)n1 [Example 11BI, (R)-(1-(4-fluorophenyl)-6-((1-methyl-1H-pyrazol-3-yl)sulfonyl)-4,4a,5,6,7,8-hexahydro-1H-pyrazolo[3,4-g]isoquinolin-4a-yl)(4-(trifluoromethyl)pyridin-2-yl)methanone]",< 20 nM,–,–
< 0.5 nM,"O=C(c1nccs1)[C@]12Cc3cnn(-c4ccc(F)cc4)c3C=C1CCN(S(=O)(=O)c1ccc(F)c(F)c1)C2 [Example 12P, (R)-(6-((3,4-difluorophenyl)sulfonyl)-1-(4-fluorophenyl)-4,4a,5,6,7,8-hexahydro-1H-pyrazolo[3,4-g]isoquinolin-4a-yl)(thiazol-2-yl)methanone]",20 to 100 nM,–,–
< 0.5 nM,"CCCn1cc(S(=O)(=O)N2CCC3=Cc4c(cnn4-c4ccc(F)cc4)C[C@]3(C(=O)c3cscn3)C2)nn1 [Example 11CS, (R)-(1-(4-fluorophenyl)-6-((1-propyl-1H-1,2,3-triazol-4-yl)sulfonyl)-4,4a,5,6,7,8-hexahydro-1H-pyrazolo[3,4-g]isoquinolin-4a-yl)(thiazol-4-yl)methanone]",< 20 nM,–,–
< 0.5 nM,"Cc1ccc(S(=O)(=O)N2CCC3=Cc4c(cnn4-c4ccc(F)cc4)C[C@]3(C(=O)c3cscn3)C2)cc1 [Example 11K, (R)-(1-(4-fluorophenyl)-6-tosyl-4,4a,5,6,7,8-hexahydro-1H-pyrazolo[3,4-g]isoquinolin-4a-yl)(thiazol-4-yl)methanone]",< 20 nM,–,–
< 0.5 nM,"Cc1ccc(S(=O)(=O)N2CCC3=Cc4c(cnn4-c4ccc(F)cc4)C[C@]3(C(=O)c3ccccn3)C2)cc1Cl [Example 11BG, (R)-(6-((3-chloro-4-methylphenyl)sulfonyl)-1-(4-fluorophenyl)-4,4a,5,6,7,8-hexahydro-1H-pyrazolo[3,4-g]isoquinolin-4a-yl)(pyridin-2-yl)methanone]",< 20 nM,–,–
< 0.5 nM,"O=C(c1ccccn1)[C@]12Cc3cnn(-c4ccc(F)cc4)c3C=C1CCN(S(=O)(=O)c1cccc(C(F)(F)F)n1)C2 [Example 11AD, (R)-(1-(4-fluorophenyl)-6-((6-(trifluoromethyl)pyridin-2-yl)sulfonyl)-4,4a,5,6,7,8-hexahydro-1H-pyrazolo[3,4-g]isoquinolin-4a-yl)(pyridin-2-yl)methanone]",< 20 nM,–,–
< 0.5 nM,"O=C(c1nccs1)[C@]12Cc3cnn(-c4ccc(F)cc4)c3C=C1CCN(S(=O)(=O)c1cncc(N3CCCC3)c1)C2 [Example 7A, (R)-(1-(4-fluorophenyl)-6-((5-(pyrrolidin-1-yl)pyridin-3-yl)sulfonyl)-4,4a,5,6,7,8-hexahydro-1H-pyrazolo[3,4-g]isoquinolin-4a-yl)(thiazol-2-yl)methanone]",20 to 100 nM,–,–
